The values that follow come from US20110066238A1, “RECONSTRUCTED CORNEA AND MUCOUS MEMBRANE” (BASF BEUTY CARE SOLUTIONS FRANCE S.A.S, priority 2008, published 2011).

Type in all cases: cell-based
The subject of one series is IL-6. The series can be described thus: Secretion of IL-6 by reconstructed human hemi-corneas treated with SDS (membrane ARRAY). As to conditions: culture supernatant after at least 24 hours of reculture following SDS treatment; irritant effect without cell mortality. The protocol:
After treating with SDS, the reconstructed human hemi-corneas are rinsed with culture medium, for example, DMEM, and then recultured for at least a further 24 hours in the culture medium described for the preparation of the reconstructed human hemi-corneas (Example 5).
The culture supernatants of the reconstructed human hemi-corneas are then recovered in order to assay the secreted pro-inflammatory cytokines. The culture supernatants optionally may be frozen before use.
The inventors evaluated the secretion of IL-6, for example by means of a “membrane ARRAY” method as a function of the cell viability previously studied in Example 6.

Series [1] concerns reconstructed human hemi-corneas. The series can be described thus: Cellular recovery of reconstructed human hemi-corneas treated with SDS, histological analysis. How it is done: The reconstructed human hemi-corneas are treated for 10 minutes by complete immersion, with increasing solutions of SDS (0.5%, 1%, 2% and 3%). After the treatment, the reconstructed human hemi-corneas are rinsed with culture medium, for example DMEM, and then fixed, for example with formaldehyde, and then included in paraffin. Paraffin slices are then prepared by microtome, preferentially at a thickness of 5 μm, and then stained, for example, with haematoxylin, phloxin and saffron. […] At and above 0.5% SDS, a histological effect on the reconstructed human hemi-corneas is observed.
After treatment with SDS, the reconstructed human hemi-corneas are rinsed with culture medium, for example, DMEM, and then recultured for at least a further 24 hours in the culture medium described for the preparation of the reconstructed human hemi-corneas (Example 5). The histological studies are performed as described in Example 5.

The test system is the same in series [2]. The series can be described thus: Histological study of reconstructed human hemi-corneas treated with SDS. As to conditions: 10 minutes, complete immersion; 0.5%, 1%, 2%, 3% SDS tested. How it is done:
A cell suspension preferentially containing 2×10^5 corneal epithelial cells/500 μl of culture medium is seeded on the surface of the reconstructed human corneal stroma. The culture medium used is preferentially composed of DMEM/HAM F12 (2/1), 10% foetal calf serum (FCS), EGF (10 ng/ml), insulin (5 μg/ml), adenine (0.18 mM), hydrocortisone (0.4 μg/ml), cholera toxin (0.1 nM), triiodothyronine (2 nM), glutamine (4 mM), ascorbic acid (1 mM), penicillin G (100 IU/ml), gentamicin (20 μg/ml) and amphotericin B (1 μg/ml). The corneal epithelial cells are cultured by immersion for 7 days on the equivalent corneal stroma and with the medium described above.
The cultures are then raised to the air/liquid interface and then cultured for a further 14 days with a culture medium preferentially composed of DMEM, hydrocortisone (0.4 μg/ml), insulin (5 μg/ml), ascorbic acid (1 mM), penicillin G (100 IU/ml), gentamicin (20 μg/ml) and amphotericin B (1 μg/ml).
The reconstructed human hemi-corneas are treated for 10 minutes by complete immersion, with increasing solutions of SDS (0.5%, 1%, 2% and 3%). After the treatment, the reconstructed human hemi-corneas are rinsed with culture medium, for example DMEM, and then fixed, for example with formaldehyde, and then included in paraffin. […]

For series [3] the test system is unchanged. The series can be described thus: Cell viability (MTT) of reconstructed human hemi-corneas treated with SDS. As to conditions: beyond 0.5% SDS, 10 minutes immersion.
The test system is the same in series [4]. The series can be described thus: Cellular recovery of reconstructed human hemi-corneas treated with SDS, cell viability. The protocol:
After culturing for 7, 14 or 28 days, the reconstructed human corneal stromas are analysed in the following manner: • the cultures are incubated for 2 hours at 37° C. in 2 ml of MTT (methyl thiazolyl tetrazolium) at 1 mg/ml. The negative control corresponds to the biomaterial not containing keratocytes; • the cultures are then recovered, and then incubated in 4 ml of DMSO (dimethyl sulfoxide) for 4 hours with stirring; • a fraction of the culture supernatant (200 μl) of each sample is recovered and then analysed by spectrophotocolorimetry (550 nm). The optical density read is directly proportional to the number of living cells. The biomaterial that has a porosity of between 40 and 50 μm is suitable for the proliferation of keratocytes. Indeed, the cellular proliferation kinetics of the keratocytes is proportional to the culturing time of the reconstructed human corneal stromas. Furthermore, irrespective of the conditions of manufacture of our biomaterial [1.6%, 1.4% and 1.25% dry matter], as described in Example 2, the keratocytes have a similar degree of proliferation.
After treatment with SDS, the reconstructed human hemi-corneas are rinsed with culture medium, for example, DMEM, and then recultured for at least a further 24 hours in the culture medium described for the preparation of the reconstructed human hemi-corneas (Example 5). […]

As to `CCCCCCCCCCCCOS(=O)(=O)[O-].[Na+]` [SDS, sodium dodecyl sulfate], the “secretion of IL-6” value in the series with IL-6 is “strong secretion of IL-6”. Besides, the “epithelial organization after cellular recovery (histology)” value in series [1] (0.5% and 1% SDS, after 48 hours of cellular recovery) was “epithelial organization close to that of untreated hemi-corneas”; in series [1] (2% and 3% SDS, after recovery), “irreversible epithelial damage”. Besides, in series [2], the “SDS concentration at which a histological effect is observed” value was not below 0.5%. Besides, the cell viability result in series [3] is “less than 75%”. For the same molecule, the “cell viability after recovery (T=48 h) versus after treatment (T=0 h)” value in series [4] (0.5% SDS) is on record as “significantly equivalent”; in series [4] (1%, 2% and 3% SDS), “significantly lower cell viability”.
